Assay results taken from paper PMC4958397, “Synthesis, antibacterial and antiproliferative potential of some new 1-pyridinecarbonyl-4-substituted thiosemicarbazide derivatives” (Medicinal Chemistry Research, 2016).
≈ marks a conversion by molar mass, not a printed value.

Key:
Lactobacillus spp. = assay: Disk diffusion, zone of bacterial growth inhibition; format: cell-based; conditions: 100 μg of compound; for zone of inhibition at 100 µg/disc: Lactobacillus, read-out: Zone of bacterial growth inhibition, L.spp.
From the text: (§1) Panel reference strains of bacteria from the American Type Culture Collection or Polish Collection of Microorganisms, including aerobic Gram-positive bacteria: Staphylococcus aureus ATCC 25923 and Staphylococcus epidermidis ATCC 12228, and aerobic Gram-negative bacteria: Escherichia coli ATCC 25922 and Pseudomonas aeruginosa ATCC 9027, as well as microaerobic Gram-positive bacteria: Lactobacillus spp., Lactobacillus acidophilus PCM 2105, Streptococcus mutans PCM 2502 and Streptococcus sanguinis PCM 2335, were used. Microbial suspensions with an optical density of 0.5 McFarland standard at 1.5 × 10^8 CFU/mL (CFU: colony forming unit) were prepared in sterile 0.9 % NaCl. Mueller–Hinton (M–H) broth and M–H agar (Oxoid Ltd., England) for aerobic strains, and MRS Broth Lactobacillus, MRS Agar Lactobacillus (BioMaxima S.A., Poland), BHI Broth and BHI agar (BioMaxima S.A., Poland) for microaerobic strains were used in the microbial tests.
(§2) The preliminary antibacterial activity of the carbazide derivatives against human pathogenic Gram-positive, Gram-negative aerobic and microaerobic bacteria was evaluated by measuring the zones of inhibition in the disk diffusion method (Murray et al., [1995]). Each compound (100 µg) was placed on Petri plates with agar medium (previously inoculated with 0.5 McFarland standards with the tested bacterial strains). After 18 h of incubation at 37 °C (for aerobic strains) or 40 h at 35 °C (for microaerobic strains), zones of microbial growth produced around the tested substances were measured and recorded as the diameters of inhibition.

[1] = system: Escherichia coli ATCC 25922; assay: as above; format: cell-based; conditions: for zone of inhibition at 100 µg/disc: Escherichia coli, ATCC25922, 100 μg of compound, read-out: Zone of bacterial growth inhibition, E.c
From the text: as §1, §2

[2] = system: Staphylococcus epidermidis ATCC 12228; assay: as above; format: cell-based; conditions: for zone of inhibition at 100 µg/disc: Staphylococcus epidermidis, ATCC12228, 100 μg of compound, read-out: Zone of bacterial growth inhibition, S.e
From the text: as §1, §2

[3] = system: Streptococcus mutans PCM 2502; assay: as above; format: cell-based; conditions: for zone of inhibition at 100 µg/disc: Streptococcus mutans, PCM2502, 100 μg of compound, read-out: Zone of bacterial growth inhibition, S.m
From the text: as §1, §2

[4] = system: Staphylococcus aureus ATCC 25923; assay: as above; format: cell-based; conditions: for zone of inhibition at 100 µg/disc: Staphylococcus aureus, ATCC25923, 100 μg of compound, read-out: Zone of bacterial growth inhibition, S.a
From the text: as §1, §2

[5] = system: Lactobacillus acidophilus PCM 210; assay: as above; format: cell-based; conditions: for zone of inhibition at 100 µg/disc: Lactobacillus acidophilus, PCM210, 100 μg of compound, read-out: Zone of bacterial growth inhibition, L.a
From the text: as §1, §2

[6] = system: Streptococcus sanguinis PCM 2335; assay: as above; format: cell-based; conditions: for zone of inhibition at 100 µg/disc: Streptococcus sanguinis, PCM2335, 100 μg of compound, read-out: Zone of bacterial growth inhibition, S.s
From the text: as §1, §2

[7] = system: Pseudomonas aeruginosa ATCC 9027; assay: as above; format: cell-based; conditions: for zone of inhibition at 100 µg/disc: Pseudomonas aeruginosa, ATCC9027, 100 μg of compound, read-out: Zone of bacterial growth inhibition, P.a
From the text: as §1, §2

[8] = system: Lactobacillus acidophilus PCM 210; assay: Broth microdilution MIC; format: cell-based; conditions: for MIC: Lactobacillus acidophilus, PCM210, NA means inactive, read-out: Minimum inhibitory concentration (MIC), L. acidophilus
[9] = system: Escherichia coli ATCC 25922; assay: Broth microdilution MIC; format: cell-based; conditions: NA means inactive; for MIC: Escherichia coli, ATCC25922, broth microdilution, read-out: Minimum inhibitory concentration (MIC), E. coli; for Minimum inhibitory concentration (MIC), E. coli: broth microdilution
From the text: as §1
(§3) A broth microdilution method was used to evaluate the minimum inhibition concentration (MIC) according to the CLSI document (CLSI performance standards for antimicrobial susceptibility testing, 2008, Eighteenth International Supplement, CLSI document M7-MIC, Clinical Laboratory Standards Institute, Wayne) with some modifications. […] A serial doubling dilution of the compounds was prepared in 96-well plates (200 μL per well). A suitable medium (M-H Broth, MRS Broth Lactobacillus, BHI Broth) was used as a diluent. The final concentrations of derivatives were 1000–0.015 μg/mL. Finally, 2 μL of inoculum of the tested bacterial strain (1.5 × 10^8 CFU/mL) was added to each well. The tests were performed either at 36 °C for 18 h (aerobic strains) or at 40 h (microaerobic strains). After incubation, the panel was digitally analyzed at 600 nm using the microplate reader Bio Tech Synergy (USA) with a dedicated software system. The growth intensity in each well was compared with the negative and positive controls.

[10] = system: Staphylococcus epidermidis ATCC 12228; assay: Broth microdilution MIC; format: cell-based; conditions: for MIC: Staphylococcus epidermidis, ATCC12228, NA means inactive, read-out: Minimum inhibitory concentration (MIC), S. epidermidis
From the text: as §1, §3

[11] = system: Streptococcus mutans PCM 2502; assay: Broth microdilution MIC; format: cell-based; conditions: for MIC: Streptococcus mutans, PCM2502, NA means inactive, read-out: Minimum inhibitory concentration (MIC), S. mutans
From the text: as §1, §3

[12] = system: Staphylococcus aureus ATCC 25923; assay: Broth microdilution MIC; format: cell-based; conditions: for MIC: Staphylococcus aureus, ATCC25923, NA means inactive, read-out: Minimum inhibitory concentration (MIC), S. aureus
From the text: as §1, §3

[13] = system: Streptococcus sanguinis PCM 2335; assay: Broth microdilution MIC; format: cell-based; conditions: for MIC: Streptococcus sanguinis, PCM2335, NA means inactive, read-out: Minimum inhibitory concentration (MIC), S. sanguinis
From the text: as §1, §3

[14] = system: Pseudomonas aeruginosa ATCC 9027; assay: Broth microdilution MIC; format: cell-based; conditions: for MIC: Pseudomonas aeruginosa, ATCC9027, NA means inactive, read-out: Minimum inhibitory concentration (MIC), P. aeruginosa
From the text: as §1, §3

[15] = system: pathogenic microaerobic bacteria (causing dental caries); assay: Broth microdilution MIC, summary in text; format: cell-based; conditions: range over compounds and strains; read-out: MIC against pathogenic microaerobic bacteria
From the text: as §1, §3

[16] = system: aerobic Gram-positive bacteria; assay: Broth microdilution MIC, summary in text; format: cell-based; conditions: range over compounds and strains; read-out: MIC against aerobic Gram-positive bacteria
From the text: as §1, §3

tested bacterial strains = assay: Disk diffusion, summary over all tested strains; format: cell-based; conditions: 100 μg; range over strains
From the text: as §1, with “Mueller–Hinton (M–H) broth and M–H agar (Oxoid Ltd., England) for aerobic strains, and MRS Broth Lactobacillus, MRS Agar Lactobacillus (BioMaxima S.A., Poland), BHI Broth and BHI agar (BioMaxima S.A., Poland) for microaerobic strains were used in the microbial tests.” left out
The preliminary antibacterial activity of the carbazide derivatives against human pathogenic Gram-positive, Gram-negative aerobic and microaerobic bacteria was evaluated by measuring the zones of inhibition in the disk diffusion method (Murray et al., [1995]). […] After 18 h of incubation at 37 °C (for aerobic strains) or 40 h at 35 °C (for microaerobic strains), zones of microbial growth produced around the tested substances were measured and recorded as the diameters of inhibition.

SMILES | melting point [°C] | zone of inhibition at 100 µg/disc (Lactobacillus spp.) [mm] | zone of inhibition at 100 µg/disc [1] [mm] | zone of inhibition at 100 µg/disc [2] [mm] | zone of inhibition at 100 µg/disc [3] [mm] | zone of inhibition at 100 µg/disc [4] [mm] | zone of inhibition at 100 µg/disc [5] [mm] | zone of inhibition at 100 µg/disc [6] [mm] | zone of inhibition at 100 µg/disc [7] [mm] | MIC [8] [µg/mL] | MIC [10] [µg/mL] | MIC [11] [µg/mL] | MIC [12] [µg/mL] | MIC [13] [µg/mL] | MIC [14] [µg/mL] | MIC [16] [µg/mL] | other results
CSc1ccc(NC(=S)NNC(=O)c2ccncc2)cc1 [Compound 8, 4-(4-Methylthiophenyl)-1-(pyridin-4-yl)carbonylthiosemicarbazide] | 197 to 198 | 0 | 0 | 0 | 0 | 0 | 0 | 0 | 0 |  |  |  |  |  |  |  | 
O=C(NNC(=S)Nc1ccccc1F)c1ccccn1 [Compound 1, 4-(2-Fluorophenyl)-1-(pyridin-2-yl)carbonylthiosemicarbazide] | 182 to 184 | 24 | 22 | 26 | 10 | 18 | 12 | 10 | 12 | 125 (≈ 431 µM) | 15.6 | 250 | 31.2 | 500 | 500 | 15.6 to 500 | MIC [9]: 62 to 125 µg/mL; Minimum inhibitory concentration (MIC), E. coli [9]: 62.5 µg/mL; MIC [15]: 7.81 to 500 µg/mL
CSc1ccc(NC(=S)NNC(=O)c2ccccn2)cc1 [Compound 5, 4-(4-Methylthiophenyl)-1-(pyridin-2-yl)carbonylthiosemicarbazide] | 184 to 186 | 11 | 11 | 10 | 0 | 10 | 19 | 15 | 0 | 500 (≈ 1570 µM) | 125 | 31.2 | 250 | 31.2 | > 1000 | 15.6 to 500 | MIC [15]: 7.81 to 500 µg/mL
O=C(NNC(=S)Nc1ccc(Cl)cc1Cl)c1ccncc1 [Compound 10, 4-(2,4-Dichlorophenyl)-1-(pyridin-4-yl)carbonylthiosemicarbazide] |  | 0 | 7 | 13 | 28 | 16 | 0 | 20 | 0 | 1000 (≈ 2930 µM) | 250 | 250 | 125 | 1000 | 1000 | 15.6 to 500 | MIC [9]: 1000 µg/mL
CO/N=C(\C(=O)N[C@@H]1C(=O)N2C(C(=O)O)=C(C[N+]3(C)CCCC3)CS[C@H]12)c1csc(N)n1.Cl.[Cl-] [Cefepime, cefepime dihydrochloride, reference compound] |  |  |  |  |  |  |  |  |  |  |  |  |  |  |  |  | Zone of bacterial growth inhibition, L.spp. (Lactobacillus spp.): 29 mm; Zone of bacterial growth inhibition, E.c ([1]; 100 μg of compound): 35 mm; Zone of bacterial growth inhibition, S.e ([2]; 100 μg of compound): 36 mm; Zone of bacterial growth inhibition, S.m ([3]; 100 μg of compound): 32 mm; Zone of bacterial growth inhibition, S.a ([4]; 100 μg of compound): 38 mm; Zone of bacterial growth inhibition, L.a ([5]; 100 μg of compound): 31 mm; Zone of bacterial growth inhibition, S.s ([6]; 100 μg of compound): 29 mm; Zone of bacterial growth inhibition, P.a ([7]; 100 μg of compound): 29 mm; Minimum inhibitory concentration (MIC), L. acidophilus ([8]; NA means inactive): 3.9 µg/mL; Minimum inhibitory concentration (MIC), E. coli [9]: 0.015 µg/mL; Minimum inhibitory concentration (MIC), S. epidermidis ([10]; NA means inactive): 0.976 µg/mL; Minimum inhibitory concentration (MIC), S. mutans ([11]; NA means inactive): 0.122 µg/mL; Minimum inhibitory concentration (MIC), S. aureus ([12]; NA means inactive): 0.976 µg/mL; Minimum inhibitory concentration (MIC), S. sanguinis ([13]; NA means inactive): 0.122 µg/mL; Minimum inhibitory concentration (MIC), P. aeruginosa ([14]; NA means inactive): 0.488 µg/mL; zones of inhibition, all tested strains (tested bacterial strains): 29–38 mm
O=C(NNC(=S)NCCN1CCOCC1)c1ccccn1 [Compound 3, 4-(2-Morpholinoethyl)-1-(pyridin-2-yl)carbonylthiosemicarbazide] | 196 to 198 | 0 | 0 | 7 | 0 | 0 | 0 | 0 | 0 |  |  |  |  |  |  |  | 
O=C(NNC(=S)Nc1ccccc1F)c1ccncc1 [Compound 9, 4-(2-Fluorophenyl)-1-(pyridin-4-yl)carbonylthiosemicarbazide] | 202 to 204 | 0 | 0 | 0 | 0 | 0 | 0 | 0 | 0 |  |  |  |  |  |  |  | 
